For 1 compound, Normal melting temperature results are on record in the NIST ThermoML archive (doi:10.1016/j.tca.2010.01.023).

For this series the following is noted: Crystal; DTA.

± gives the expanded uncertainty stated by the source.

For `CCCCn1cc[n+](C)c1.[Cl-]` [1-butyl-3-methylimidazolium chloride], the Normal melting temperature stood at 65.0 ± 1 °C.
